Entries after “also recorded” stand apart in the source; their conditions may differ.
Columns and labels:
X-MuLV = X-MuLV inactivation by detergent in neutralized mAb protein A eluate, remaining infectivity by TCID50 assay on PG-4 cells; type: cell-based, Xenotropic Murine Leukemia Virus; conditions: 16° C.
Protocol: The pH of various protein A eluates was adjusted to 7.0 with 1M Tris buffer. The pH adjusted eluate was then filtered through a 0.22 um filter. Various volumes of 5% stock solution of Mega-10, Tween 20, or Tween 80 were added to the filtered neutralized protein A eluates. This was done to prepare protein A eluates containing various concentrations of each detergent. X-MuLV was then spiked at a 1:20 ratio to the neutralized protein A eluate containing various concentrations of each detergent that had been pre-incubated at a 16° C. water bath prior to the virus spiking. After a thorough mixing, an aliquot of a sample was removed immediately and quenched with a diluent (McCoy's medium containing 3 μg/mL of polybrene) at 1:12 for Mega-10 or at 1:100 for Tween 20 and Tween 80 to stop the inactivation, and the sample was designated as a time-zero sample. The remaining spiked eluate was returned to the water bath and the samples were collected at the indicated time to evaluate the viral inactivation kinetics.
The remaining X-MuLV infectivity in the samples post-inactivation treatment was determined by a TCID50 assay that is an endpoint dilution assay to quantify the amount of virus required to produce a cytopathic effect in 50% of inoculated tissue culture cells. Virus titers were estimated using the Spearman-Karber method and reported as TCID50/mL with a calculated 95% confidence interval (CI). Briefly, a sufficient number of 96-well plates with PG-4 (feline S^+L^−, ATCC#CRL-2032) cells were prepared the day before starting the viral inactivation experiments and incubated overnight in a 37° C. humidified CO2 incubator. A set of ten 3.2 fold dilution of the diluted positive control (1:100) and viral inactivated samples were prepared in a dilution block. Each set of the 11 serial dilutions of the samples were inoculated correspondingly onto wells (100 μL per well) of the first 11 columns in a 96-well plate that had been pre-seeded with PG-4 cells. The 12th column in the same plate was inoculated with the corresponding diluent to serve as non-virus negative control. The positive control was prepared by spiking the filtered neutralized protein A eluate with X-MuLV at a 1:20 ratio. The inoculated plates were then incubated in a 37° C. humidified CO2 incubator for approximate 2 hours. A volume of 100 uL of 2× assay medium (92% McCoy's 5A medium, 4% FBS, 2% Penicillin/Streptomycin, 2% L-Glutamine) was added to each well of the plates at the end of incubation. The plates were then returned to the same incubator, and continued incubation for 6 days. Each well of the plates were scored under a microscope for the presence of cytopathic effect (CPE) and the results were recorded in a scoring sheet. Virus titers were then estimated using the Spearman-Karber method and reported as TCID50/mL with a calculated 95% confidence interval (CI).
To evaluate robustness of X-MuLV inactivation by Mega-10 in Protein A eluates of mAb1, X-MuLV was spiked at a 1:20 ratio into the neutralized mAb1 protein A eluate contain 0.1%, 0.2% and 0.3% of Mega-10. After a thorough mixing, an aliquot of sample was removed at 0, 2.5, 5, 10, and 30 minutes after incubation at 16° C. The remaining virus titer in the collected samples was determined by the TCID50 assay.

aquatic environment = conditions: cited from earlier work
[1] = 0.1% Mega-10, neutralized mAb1 protein A eluate pH 7.01, incubation 0 minutes
[2] = 0.1% Mega-10, neutralized mAb1 protein A eluate pH 7.01, incubation 2.5 minutes
[3] = 0.1% Mega-10, neutralized mAb1 protein A eluate pH 7.01, incubation 5.0 minutes
[4] = 0.1% Mega-10, neutralized mAb1 protein A eluate pH 7.01, incubation 10 minutes
[5] = 0.1% Mega-10, neutralized mAb1 protein A eluate pH 7.01, incubation 30 minutes
[6] = 0.1% Mega-10, neutralized mAb2 protein A eluate pH 7.01, incubation 0 minutes
[7] = 0.1% Mega-10, neutralized mAb2 protein A eluate pH 7.01, incubation 2.5 minutes
[8] = 0.1% Mega-10, neutralized mAb2 protein A eluate pH 7.01, incubation 5.0 minutes
[9] = 0.1% Mega-10, neutralized mAb2 protein A eluate pH 7.01, incubation 10 minutes
[10] = 0.1% Mega-10, neutralized mAb2 protein A eluate pH 7.01, incubation 30 minutes
[11] = 0.2% Mega-10, neutralized mAb1 protein A eluate pH 7.01, incubation 0 minutes
[12] = 0.2% Mega-10, neutralized mAb1 protein A eluate pH 7.01, incubation 5.0 minutes
[13] = 0.2% Mega-10, neutralized mAb1 protein A eluate pH 7.01, incubation 10 minutes
[14] = 0.2% Mega-10, neutralized mAb1 protein A eluate pH 7.01, incubation 30 minutes
[15] = 0.2% Mega-10, neutralized mAb2 protein A eluate pH 7.01, incubation 0 minutes
[16] = 0.2% Mega-10, neutralized mAb2 protein A eluate pH 7.01, incubation 2.5 minutes
[17] = 0.2% Mega-10, neutralized mAb2 protein A eluate pH 7.01, incubation 5.0 minutes
[18] = 0.2% Mega-10, neutralized mAb2 protein A eluate pH 7.01, incubation 10 minutes
[19] = 0.3% Mega-10, neutralized mAb1 protein A eluate pH 7.01, incubation 0 minutes
[20] = 0.3% Mega-10, neutralized mAb1 protein A eluate pH 7.01, incubation 5.0 minutes
[21] = 0.3% Mega-10, neutralized mAb1 protein A eluate pH 7.01, incubation 10 minutes
[22] = 0.3% Mega-10, neutralized mAb1 protein A eluate pH 7.01, incubation 30 minutes
[23] = 0.3% Mega-10, neutralized mAb2 protein A eluate pH 7.01, incubation 0 minutes
[24] = 0.3% Mega-10, neutralized mAb2 protein A eluate pH 7.01, incubation 5.0 minutes
[25] = 0.3% Mega-10, neutralized mAb2 protein A eluate pH 7.01, incubation 10 minutes
[26] = 0.3% Mega-10, neutralized mAb2 protein A eluate pH 7.01, incubation 30 minutes

Compound: CCCCCCCCCC(=O)N(C)C[C@H](O)[C@@H](O)[C@H](O)[C@H](O)CO [Mega-10, N-Methylglucamide]
- LRF ± 95% CL (X-MuLV; 0.10% Mega 10 alone, neutralized mAb1 protein A eluate, 0 minutes (Table 2)): 0.33 ± 0.35
- LRF ± 95% CL (X-MuLV; 0.10% Mega 10 alone, neutralized mAb1 protein A eluate, 2.5 minutes (Table 2)): 0.33±0.29
- LRF ± 95% CL (X-MuLV; 0.10% Mega 10 alone, neutralized mAb1 protein A eluate, 2.5 minutes (Table 2), listed as Mega 10): 0.33 ± 0.29
- LRF ± 95% CL (X-MuLV; 0.10% Mega 10 alone, neutralized mAb1 protein A eluate, 5 minutes (Table 2)): 0.33 ± 0.32
- LRF ± 95% CL (X-MuLV; 0.10% Mega 10 alone, neutralized mAb1 protein A eluate, 10 minutes (Table 2)): 0.39 ± 0.36
- LRF ± 95% CL (X-MuLV; 0.10% Mega 10 alone, neutralized mAb1 protein A eluate, 30 minutes (Table 2)): 0.64 ± 0.33
- LRF ± 95% CL (X-MuLV; [1]): 0.26 ± 0.28
- Log10 TCID50/mL (X-MuLV; [1]): 6.53 ± 0.20 Log10 TCID50/mL
- LRF ± 95% CL (X-MuLV; [2]): 0.38 ± 0.32
- Log10 TCID50/mL (X-MuLV; [2]): 6.41 ± 0.26 Log10 TCID50/mL
- LRF ± 95% CL (X-MuLV; [3]): 0.38 ± 0.28
- Log10 TCID50/mL (X-MuLV; [3]): 6.41 ± 0.21 Log10 TCID50/mL
- LRF ± 95% CL (X-MuLV; [4]): 0.38 ± 0.28
- Log10 TCID50/mL (X-MuLV; [4]): 6.41 ± 0.20 Log10 TCID50/mL
- LRF ± 95% CL (X-MuLV; [5]): 0.38 ± 0.23
- Log10 TCID50/mL (X-MuLV; [5]): 6.41 ± 0.12 Log10 TCID50/mL
- LRF ± 95% CL (X-MuLV; [6]): 0.36 ± 0.28
- Log10 TCID50/mL (X-MuLV; [6]): 6.56 ± 0.22 Log10 TCID50/mL
- LRF ± 95% CL (X-MuLV; [7]): 0.36 ± 0.28
- Log10 TCID50/mL (X-MuLV; [7]): 6.56 ± 0.22 Log10 TCID50/mL
- LRF ± 95% CL (X-MuLV; [8]): 0.36 ± 0.25
- Log10 TCID50/mL (X-MuLV; [8]): 6.56 ± 0.18 Log10 TCID50/mL
- LRF ± 95% CL (X-MuLV; [9]): 0.29 ± 0.26
- Log10 TCID50/mL (X-MuLV; [9]): 6.63 ± 0.19 Log10 TCID50/mL
- LRF ± 95% CL (X-MuLV; [10]): 0.36 ± 0.28
- Log10 TCID50/mL (X-MuLV; [10]): 6.56 ± 0.22 Log10 TCID50/mL
- LRF ± 95% CL (X-MuLV; 0.15% Mega 10 alone, neutralized mAb2 protein A eluate, 0 minutes (Table 3)): 0.99 ± 0.30
- LRF ± 95% CL (X-MuLV; 0.15% Mega 10 alone, neutralized mAb2 protein A eluate, 2.5 minutes (Table 3)): 1.62 ± 0.30
- LRF ± 95% CL (X-MuLV; 0.15% Mega 10 alone, neutralized mAb2 protein A eluate, 5 minutes (Table 3)): 1.68±0.31
- LRF ± 95% CL (X-MuLV; 0.15% Mega 10 alone, neutralized mAb2 protein A eluate, 5 minutes (Table 3), listed as Mega 10): 1.68 ± 0.31
- LRF ± 95% CL (X-MuLV; 0.15% Mega 10 alone, neutralized mAb2 protein A eluate, 10 minutes (Table 3)): 1.94 ± 0.32
- LRF ± 95% CL (X-MuLV; 0.15% Mega 10 alone, neutralized mAb2 protein A eluate, 30 minutes (Table 3)): 1.94 ± 0.32
- LRF ± 95% CL (X-MuLV; [11]): 2.91 ± 0.32
- Log10 TCID50/mL (X-MuLV; [11]): 3.88 ± 0.25 Log10 TCID50/mL
- Log10 TCID50/mL (X-MuLV; 0.2% Mega-10, neutralized mAb1 protein A eluate pH 7.01, incubation 2.5 minutes): ≤1.21 Log10 TCID50/mL
- LRF ± 95% CL (X-MuLV; [12]): ≥5.58 ± 0.19
- Log10 TCID50/mL (X-MuLV; [12]): ≤1.21 Log10 TCID50/mL
- LRF ± 95% CL (X-MuLV; [13]): ≥5.58 ± 0.19
- Log10 TCID50/mL (X-MuLV; [13]): ≤1.21 Log10 TCID50/mL
- LRF ± 95% CL (X-MuLV; [14]): ≥5.58 ± 0.19
- Log10 TCID50/mL (X-MuLV; [14]): ≤1.21 Log10 TCID50/mL
- treatment time to inactivate X-MuLV to the level below the detection limit (X-MuLV; 0.2% Mega-10, neutralized mAb1 protein A eluate): 2.5 min
- LRF ± 95% CL (X-MuLV; [15]): 4.73 ± 0.46
- Log10 TCID50/mL (X-MuLV; [15]): 2.19 ± 0.43 Log10 TCID50/mL
- LRF ± 95% CL (X-MuLV; [16]): 5.31±0.75
- Log10 TCID50/mL (X-MuLV; [16]): 1.61 ± 0.73 Log10 TCID50/mL
- LRF ± 95% CL (X-MuLV; [17]): 5.31 ± 0.75
- Log10 TCID50/mL (X-MuLV; [17]): 1.61 ± 0.73 Log10 TCID50/mL
- LRF ± 95% CL (X-MuLV; [18]): 5.50 ± 0.90
- Log10 TCID50/mL (X-MuLV; [18]): 1.42 ± 0.88 Log10 TCID50/mL
- Log10 TCID50/mL (X-MuLV; 0.2% Mega-10, neutralized mAb2 protein A eluate pH 7.01, incubation 30 minutes): ≤1.11 ± 0.27 Log10 TCID50/mL
- LRF ± 95% CL (X-MuLV; [19]): 3.79 ± 0.33
- Log10 TCID50/mL (X-MuLV; [19]): 3.00 ± 0.27 Log10 TCID50/mL
- Log10 TCID50/mL (X-MuLV; 0.3% Mega-10, neutralized mAb1 protein A eluate pH 7.01, incubation 2.5 minutes): ≤1.21 Log10 TCID50/mL
- LRF ± 95% CL (X-MuLV; [20]): ≥5.58 ± 0.19
- Log10 TCID50/mL (X-MuLV; [20]): ≤1.21 Log10 TCID50/mL
- LRF ± 95% CL (X-MuLV; [21]): ≥5.58 ± 0.19
- Log10 TCID50/mL (X-MuLV; [21]): ≤1.21 Log10 TCID50/mL
- LRF ± 95% CL (X-MuLV; [22]): ≥5.58 ± 0.19
- Log10 TCID50/mL (X-MuLV; [22]): ≤1.21 Log10 TCID50/mL
- treatment time to inactivate X-MuLV to the level below the detection limit (X-MuLV; 0.3% Mega-10, neutralized mAb1 protein A eluate): 2.5 min
- LRF ± 95% CL (X-MuLV; [23]): 4.73 ± 0.46
- Log10 TCID50/mL (X-MuLV; [23]): 2.19 ± 0.43 Log10 TCID50/mL
- Log10 TCID50/mL (X-MuLV; 0.3% Mega-10, neutralized mAb2 protein A eluate pH 7.01, incubation 2.5 minutes): ≤1.11 Log10 TCID50/mL
- LRF ± 95% CL (X-MuLV; [24]): ≥5.81 ± 0.18
- Log10 TCID50/mL (X-MuLV; [24]): ≤1.11 Log10 TCID50/mL
- LRF ± 95% CL (X-MuLV; [25]): ≥5.81 ± 0.18
- Log10 TCID50/mL (X-MuLV; [25]): ≤1.11 Log10 TCID50/mL
- LRF ± 95% CL (X-MuLV; [26]): ≥5.81 ± 0.18
- Log10 TCID50/mL (X-MuLV; [26]): ≤1.11 Log10 TCID50/mL
- treatment time to inactivate X-MuLV to the level below detection (X-MuLV; 0.3% Mega-10, neutralized mAb2 protein A eluate): 2.5 min
- toxicity to the aquatic environment (aquatic environment): without toxicity to the aquatic environment; also recorded: no toxicity to the aquatic environment
